Results on 31 molecules are retold here after patent US7652006B2, “Substituted 1(2H)-phthalazinones and pharmaceutical compositions thereof” (Euro-Celtique S.A., priority 1998, dated 2010).

Counter-ions that a name gives are not always drawn.

The first test relates to AMPA receptors. Description: electrophysiological assay, AMPA receptors expressed in oocyte. The class given is cell-based, rat. The settings on record: inhibiting or modulating AMPA receptors expressed in oocyte; read-out: AMPA IC50. An excerpt:
The compounds of the present invention may be assessed by electrophysiological assays in Xenopus oocytes expressing rat whole brain poly(A)^+ RNA (see Keana et. al. J. Med. Chem. 38: 4367-4379 (1995)) or in cultured rat cortical neurons (see Woodward et. al. Mol. Pharmacol. 47: 568-581 (1995)) for AMPA receptor activity. Compounds which are useful for treating or preventing the adverse consequences of stroke, hypoglycemia, neurodegenerative disorders, anxiety, epilepsy or psychosis, or which induce analgesia, will inhibit the currents across the membranes of the oocyte expressing AMPA receptors. However, if the compound potentiates currents across the oocyte membrane, then the compound is expected to be useful in enhancing cognition or treating schizophrenia or neurodegenerative disease such as Parkinson's Disease.
The potency of antagonism or potentiation for these compounds were determined by electrophysiological assay. Potencies of selective compounds described above in inhibiting or modulating AMPA receptors expressed in oocyte and their anticonvulsant activity against maximal electroshock induced convulsion are shown in Table 1.
As usually defined, the IC50 is the concentration at which inhibition is half-maximal. `O=c1c2cc3c(cc2c(-c2ccc4c(c2)OCO4)nn1CCn1ccnc1)OCO3` [2-[2-(1-Imidazolyl)ethyl]-4-(3,4-methylenedioxyphenyl)-6,7-methylenedioxy-1(2H)-phthalazinone]: the IC50 is 6 µM.
Take `O=c1nc(-c2ccc3c(c2)OCO3)c2cc3c(cc2n1CCN1CCCCC1)OCO3` [1-(Piperidin-1-yl)ethyl-6,7-methylenedioxy-4-(3,4-methylenedioxyphenyl)quinazoline-2-one]: the IC50 was 4 µM.
On the same count and under the same terms, then `CC(C)n1c(=O)nc(-c2ccc3c(c2)OCO3)c2cc3oc(=O)n(Cc4ccccc4)c3cc21` [1-Isopropyl-4-(3,4-methylenedioxyphenyl)-8-benzyl-7-oxo-oxazol[5,4-g]quinazolin-2(1H)-one], with 3 µM; and `CCn1c(=O)nc(-c2cc3c(cc2N)OCO3)c2cc3c(cc21)OCO3` [1-Ethyl-6,7-methylenedioxy-4-(2-amino-4,5-methylenedioxyphenyl)quinazolin-2(1H)-one], with 7 µM; and `CN(C)CCCCCOc1nc(-c2ccc3c(c2)OCO3)c2cc3c(cc2n1)OCO3` [2-[(3-Dimethylaminopropyl)ethoxy]-6,7-methylenedioxy-4-(3,4-methylenedioxyphenyl)quinazoline], with 12 µM.
The same measure, in the same setting: then `CCOc1nc(-c2ccc3c(c2)OCO3)c2cc3c(cc2n1)OCO3` [2-Ethoxy-6,7-methylenedioxy-4-(3,4-methylenedioxyphenyl)-quinazoline], with 6 µM; and `c1cn(CCOc2nc(-c3ccc4c(c3)OCO4)c3cc4c(cc3n2)OCO4)cn1` [2-[2-(Imidazol-1-yl)ethoxy]-6,7-methylenedioxy-4-(3,4-methylenedioxyphenyl)quinazoline], with 10 µM; and `CCc1nc(-c2ccc3c(c2)OCO3)c2cc3c(cc2n1)OCO3` [2-Ethyl-4-(3,4-methylenedioxyphenyl)-6,7-methylenedioxyquinazoline], with 4.3 µM.
As to `O=c1nc(-c2ccc3c(c2)OCO3)c2cc3c(cc2n1CCO)OCO3` [1-[(2-Hydroxy)ethyl]-6,7-methylenedioxy-4-(3,4-methylenedioxyphenyl)quinazoline-2-one], the IC50 stood at 1.5 µM.
On to `Cc1nc(-c2ccc3c(c2)OCO3)c2cc3c(cc2n1)OCO3` [6,7-Methylenedioxy-4-(3,4-methylenedioxyphenyl)-2-methylquinazoline], for which the IC50 was determined as 4.5 µM.
For `Cc1nc2cc3c(cc2c(-c2ccc4c(c2)OCO4)[n+]1[O-])OCO3` [2-Methyl-6,7-methylenedioxy-4-(3,4-methylenedioxyphenyl)quinazoline 3-oxide], the IC50 was determined as 4 µM.
On to `ICc1nc(-c2ccc3c(c2)OCO3)c2cc3c(cc2n1)OCO3` [2-Iodomethyl-6,7-methylenedioxy-4-(3,4-methylenedioxyphenyl)quinazoline], for which the IC50 stood at 7 µM.
In the case of `CN(C)Cc1nc2cc3c(cc2c(-c2ccc4c(c2)OCO4)[n+]1[O-])OCO3` [2-Dimethylaminomethyl-6,7-methylenedioxy-4-(3,4-methylenedioxyphenyl)quinazoline-3-oxide], the IC50 was 10 µM.
Turning to `OCc1nc(-c2ccc3c(c2)OCO3)c2cc3c(cc2n1)OCO3` [2-Hydroxymethyl-6,7-methylenedioxy-4-(3,4-methylenedioxyphenyl)quinazoline], the IC50 amounted to 6 µM.
As to `CC(C)n1c(=O)nc(-c2ccc3c(c2)OCCO3)c2cc3oc(=O)n(C)c3cc21` [1-Isopropyl-4-(3,4-ethylenedioxyphenyl)-8-methyl-7-oxo-oxazol[5.4-g]quinazolin-2(1H)-one], the IC50 was determined as 3.2 µM.
For `CC(C)n1c(=O)nc(-c2ccc3c(c2)OCO3)c2cc3c(cc21)OCCO3` [6,7-Ethylenedioxy-1-isopropyl-4-(3,4-methylenedioxyphenyl)quinazolin-2(1H)-one], the IC50 came to 7 µM.
For the molecule `CN(C)CCCn1c(=O)nc(-c2ccc3c(c2)OCO3)c2cc3c(cc21)OCO3` [1-(3-Dimethylaminopropyl)-6,7-methylenedioxy-4-(3,4-methlenedioxyphenyl)quinazoline-2-one], the IC50 is 3 µM.
On the same count and under the same terms, then `NCCn1c(=O)nc(-c2ccc3c(c2)OCO3)c2cc3c(cc21)OCO3` [1-(2-aminoethyl)-6,7-methylenedioxy-4-(3,4-methylenedioxyphenyl)quinazoline-2(1H)-one], with 1 µM; and `OCCOc1nc(-c2ccc3c(c2)OCO3)c2cc3c(cc2n1)OCO3` [2-[(2-Hydroxy)ethoxy]-6,7-methylenedioxy-4-(3,4-methylenedioxyphenyl)quinazoline], with 4 µM; and “1-[2-(N-methylpyrrolidin-1-yl)ethyl]-6,7-methylenedioxy-4-(3,4-methylenedioxyphenyl)quinazoline-2-one”, with 4 µM.
For the molecule `COCCn1c(=O)nc(-c2ccc3c(c2)OCO3)c2cc3c(cc21)OCO3` [1-[(2-Methoxy)ethyl]-6,7-methylenedioxy-4-(3,4-methylenedioxyphenyl)quinazoline-2-one], the half-maximal inhibitory concentration (IC50) worked out at 13 µM.
As for `CCOC(=O)CCn1nc(-c2ccc3c(c2)OCO3)c2cc3c(cc2c1=O)OCO3` [2-[2(ethoxycarbonyl)ethyl]-4-(3,4-methylenedioxyphenyl)-6,7-methylenedioxy-1(2H)-phthalazinone], the IC50 was 3 µM.
`[O-][n+]1c(CN2CCCC2)nc2cc3c(cc2c1-c1ccc2c(c1)OCO2)OCO3` [2-(Pyrrolidin-1-yl)methyl-6,7-methylenedioxy-4-(3,4-methylenedioxyphenyl)quinazoline-3-oxide]: the half-maximal inhibitory concentration (IC50) worked out at 7 µM.
Take `ClCCCc1nc(-c2ccc3c(c2)OCO3)c2cc3c(cc2n1)OCO3` [2-(3-Chloropropyl)-4-(3,4-methylenedioxyphenyl)-6,7-methylenedioxyquinazoline]: the IC50 turned out to be 11 µM.
Still for that read-out and setting: the result for `CCn1c(=O)nc(-c2cc3c(cc2[N+](=O)[O-])OCO3)c2cc3c(cc21)OCO3` [1-Ethyl-6,7-methylenedioxy-4-(3,4-methylenedioxy-6-nitrophenyl)quinazolin-2(1H)-one] reads 4.7 µM; that for `O=c1nc(-c2ccc3c(c2)OCO3)c2cc3c(cc2n1CC1CC1)OCO3` [1-cyclopropylmethyl-6,7-methylenedioxy-4-(3,4-methylenedioxyphenyl) quinazolin-2(1H)-one], 6 µM; that for `O=c1nc(-c2ccc3c(c2)OCO3)c2cc3c(cc2n1CCn1ccnc1)OCO3` [1-(Imidazol-1-yl)ethyl-6,7-methylenedioxy-4-(3,4-methylenedioxyphenyl)quinazoline-2-one], 5 µM.
On to `[O-][n+]1c(Cn2ccnc2)nc2ccc3c(c2c1-c1ccc2c(c1)OCO2)OCO3` [2-(1-Imidazolyl)methyl-5,6-methylenedioxy-4-(3,4-methylenedioxyphenyl)quinazoline 3-oxide hydrochloride], for which the IC50 stood at 6 µM.
In the case of `CCn1c(=O)nc(-c2ccc3ccccc3c2)c2cc3c(cc21)OCO3` [1-Ethyl-6,7-methylenedioxy-4-(2-naphthyl)quinazolin-2(1H)-one], the IC50 amounted to 5 µM.
Consider `c1cc2c(cc1-c1nc(CN3CCNCC3)nc3cc4c(cc13)OCO4)OCO2` [6,7-Methylenedioxy-2-(piperazin-1-yl)methyl-4-(3,4-methylenedioxyphenyl)quinazoline], for which the IC50 was determined as 12 µM.

The same test, now with this note: read-out: AMPA IC50; inhibiting or modulating AMPA receptors expressed in oocyte.
For `ClCCc1nc(-c2ccc3c(c2)OCO3)c2cc3c(cc2n1)OCO3` [2-(2-Chloroethyl)-6,7-methylenedioxy-4-(3,4-methylenedioxyphenyl)quinazoline], the IC50 turned out to be 3 µM.
